Laboratory results taken from patent publication US8030487B2, “2-amino—5-substituted pyrimidine inhibitors” (TargeGen, Inc., priority 2006, dated 2011).

Legend:
human c-Src = biological target: T1, human c-Src (Homo sapiens, UniProt P12931); assay: Src kinase inhibition (KinaseGlo residual ATP); type: biochemical; conditions: ATP 3 μM, 90 min room temperature
T1 construct: purchased Panvera/Invitrogen
Experimental: (§1) The ability of compounds of the present invention to inhibit the activity of various groups of kinases was tested. Kinases that were tested are described below. All kinase reactions were conducted in 96-well plates with a final reaction volume of 50 μl.
Recombinant human c-Src or Yes, or Fyn, or Lck (28 ng/well, Panvera/Invitrogen, Madison Wis.), ATP (3 μM), a tyrosine kinase substrate (PTK2, 250 μM, Promega Corp., Madison Wis.), and test agents (at concentrations ranging from about 1 nM/l to about 100 μM/l), in the presence of Src kinase reaction buffer (Upstate USA, Lake Placid N.Y.). After reacting for about 90 minutes at room temperature, residual ATP was determined using a luciferase-based assay (KinaseGlo, Promega Corp.) as a measure of kinase activity. Data from four wells were then averaged and used to determine IC50 values for the test compounds (Prism software package, GraphPad Software, San Diego Calif.).

VEGFR2 = biological target: T2, VEGFR2 (Homo sapiens, UniProt P35968); assay: VEGFR2 kinase inhibition (residual ATP luminescence); type: biochemical; conditions: 1.5 uM ATP, 60 min 37° C.
T2 construct: purchased Cell Signaling/ProQinase
T2 sequence (P35968 20-1356, species assumed): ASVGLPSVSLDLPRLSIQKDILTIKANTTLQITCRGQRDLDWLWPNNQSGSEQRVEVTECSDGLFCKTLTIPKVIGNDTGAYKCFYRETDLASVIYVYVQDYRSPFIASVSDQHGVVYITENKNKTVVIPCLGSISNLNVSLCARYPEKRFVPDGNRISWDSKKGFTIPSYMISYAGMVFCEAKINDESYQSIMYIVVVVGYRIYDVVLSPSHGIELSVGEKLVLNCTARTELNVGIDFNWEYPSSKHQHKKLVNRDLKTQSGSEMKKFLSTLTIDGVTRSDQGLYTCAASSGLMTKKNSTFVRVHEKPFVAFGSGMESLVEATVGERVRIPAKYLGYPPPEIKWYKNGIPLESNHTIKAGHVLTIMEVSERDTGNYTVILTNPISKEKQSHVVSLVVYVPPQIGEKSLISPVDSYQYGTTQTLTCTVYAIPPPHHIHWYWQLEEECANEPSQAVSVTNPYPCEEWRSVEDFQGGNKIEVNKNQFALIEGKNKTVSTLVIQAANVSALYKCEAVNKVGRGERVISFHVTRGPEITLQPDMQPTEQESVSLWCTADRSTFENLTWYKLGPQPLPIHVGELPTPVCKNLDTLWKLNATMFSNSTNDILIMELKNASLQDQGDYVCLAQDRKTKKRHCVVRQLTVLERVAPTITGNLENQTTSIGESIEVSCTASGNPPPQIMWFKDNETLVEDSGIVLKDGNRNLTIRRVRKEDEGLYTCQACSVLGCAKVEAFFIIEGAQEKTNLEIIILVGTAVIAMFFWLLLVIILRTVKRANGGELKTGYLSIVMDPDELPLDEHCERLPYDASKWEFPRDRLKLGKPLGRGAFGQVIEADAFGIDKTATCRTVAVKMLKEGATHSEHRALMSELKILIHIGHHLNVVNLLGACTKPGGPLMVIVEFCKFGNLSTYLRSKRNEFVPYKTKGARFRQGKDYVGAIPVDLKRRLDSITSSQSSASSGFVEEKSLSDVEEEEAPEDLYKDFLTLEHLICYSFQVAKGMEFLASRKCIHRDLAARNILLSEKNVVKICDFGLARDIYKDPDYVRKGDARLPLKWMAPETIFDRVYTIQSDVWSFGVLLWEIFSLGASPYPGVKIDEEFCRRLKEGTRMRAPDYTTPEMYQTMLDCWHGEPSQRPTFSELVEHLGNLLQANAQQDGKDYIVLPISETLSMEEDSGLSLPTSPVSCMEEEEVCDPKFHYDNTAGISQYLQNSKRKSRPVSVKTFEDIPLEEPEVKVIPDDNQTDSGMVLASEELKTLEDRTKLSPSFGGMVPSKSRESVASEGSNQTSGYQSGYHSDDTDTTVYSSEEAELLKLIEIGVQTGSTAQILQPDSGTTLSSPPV
Experimental: as §1
EGFR and VEGFR2 kinase assays were similarly performed. EGFR (76 ng/well, Panvera/Invitrogen) was combined with 12.5 mg/ml poly(glu4tyr) (Sigma) and 2.5 uM ATP. VEGFR2 (14.1 U/well, Cell Signaling/ProQinase) was used with 0.3 mg/ml poly(glu4tyr) and 1.5 uM ATP. Both were incubated for 60 minutes at 37° C., and the residual ATP was measured via luminescence, per the procedure described above.

T1 sequence (P12931 whole entry): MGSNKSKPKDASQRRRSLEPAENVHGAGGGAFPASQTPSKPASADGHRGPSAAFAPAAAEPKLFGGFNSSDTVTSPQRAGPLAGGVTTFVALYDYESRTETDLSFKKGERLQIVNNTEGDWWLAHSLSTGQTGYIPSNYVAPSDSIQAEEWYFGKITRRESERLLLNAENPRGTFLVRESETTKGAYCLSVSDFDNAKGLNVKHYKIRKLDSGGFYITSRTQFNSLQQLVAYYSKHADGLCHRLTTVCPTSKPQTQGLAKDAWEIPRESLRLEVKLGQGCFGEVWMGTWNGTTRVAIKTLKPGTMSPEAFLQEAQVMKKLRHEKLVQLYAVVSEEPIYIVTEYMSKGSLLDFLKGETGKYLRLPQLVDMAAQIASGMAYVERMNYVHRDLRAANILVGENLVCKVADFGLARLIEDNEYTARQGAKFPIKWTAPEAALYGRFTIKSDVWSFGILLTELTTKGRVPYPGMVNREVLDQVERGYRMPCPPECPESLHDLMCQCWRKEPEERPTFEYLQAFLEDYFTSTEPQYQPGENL

Structure (SMILES) | IC50 (human c-Src) | IC50 (VEGFR2)
O=C(Nc1ccc(Cl)c(CNc2cnc(Nc3cccnc3)nc2)c1)c1cccc(C(F)(F)F)c1 | 10.2 nM | 2.1 nM
CC(=O)Nc1ccc(Cl)c(C(=O)Nc2cnc(Nc3ccc(S(=O)(=O)C4CCNCC4)cc3)nc2)c1 | 2600 nM | 
O=C(Nc1cnc(Nc2ccc(CCCN3CCCC3)cc2)nc1)c1cc(Nc2ccc3ccccc3n2)ccc1Cl | 407 nM | 
O=C(Nc1ccc(Cl)c(C(=O)Nc2cnc(NCCN3CCCC3)nc2)c1)c1cccc(C(F)(F)F)c1 | > 10000 nM | 
Cc1cc(C(=O)Nc2ccc(Cl)c(C(=O)Nc3cnc(Nc4ccc(OCCN5CCCC5)cc4)nc3)c2)no1 | 77.5 nM | 
O=C(Nc1ccc(Cl)c(C(=O)Nc2cnc(Nc3cccc(S(=O)(=O)NCCN4CCCC4)c3)nc2)c1)c1cccc(C(F)(F)F)c1 | 4 nM | 2.1 nM
O=C(Nc1ccc(Cl)c(C(=O)Nc2cnc(Nc3ccc(OCCN4CCCC4)cc3)nc2)c1)c1ccc(C(F)(F)F)cc1 | 3.3 nM | 12 nM
O=C(Nc1cccc(C(F)(F)F)c1)Nc1ccc(Cl)c(C(=O)Nc2cnc(Nc3cccnc3)nc2)c1 | 14.2 nM | 20.1 nM
Cc1ccc(S(=O)(=O)NCc2ccccc2)cc1Nc1cnc(Nc2ccc(S(=O)(=O)NCCN3CCCC3)cc2)nc1 | 1300 nM | 
Cc1ccc(S(N)(=O)=O)cc1Nc1cnc(Nc2ccc(S(=O)(=O)NCCN3CCCC3)cc2)nc1 | ~10000 nM | 
O=C(Nc1ccc(Cl)c(NC(=O)c2cnc(Nc3ccc(OCCN4CCCC4)cc3)nc2)c1)c1cccc(C(F)(F)F)c1 | 50 nM | 43 nM
O=C(Nc1ccc(Cl)c(NC(=O)c2cnc(Nc3cccc(OCCN4CCCC4)c3)nc2)c1)c1cccc(C(F)(F)F)c1 | 67 nM | 149 nM
O=C(Nc1ccc(Cl)c(NC(=O)c2cnc(Nc3cccnc3)nc2)c1)c1cccc(C(F)(F)F)c1 | 86 nM | 178 nM
COc1ccc(Nc2ncc(NC(=O)c3cc(NC(=O)c4cccc(C(F)(F)F)c4)ccc3Cl)cn2)cc1 | 12 nM | 23 nM
O=C(Nc1ccc(Cl)c(C(=O)Nc2cnc(Nc3ccc(O)cc3)nc2)c1)c1cccc(C(F)(F)F)c1 | 19 nM | 15 nM
O=C(Nc1ccc(Cl)c(C(=O)Nc2cnc(Nc3ccc(OC(=O)c4ccccc4)cc3)nc2)c1)c1cccc(C(F)(F)F)c1 | 647 nM | 361 nM

Structure (SMILES) | IC50 (human c-Src) | IC50 (VEGFR2)
Cc1cccc(NC(=O)c2cccc(C(=O)Nc3cnc(Nc4ccc(S(=O)(=O)CCCN5CCCC5)cc4)nc3)c2)c1 |  | 164 nM
O=C(Nc1ccc(Cl)c(C(=O)Nc2cnc(Nc3ccc(S(=O)(=O)CCCN4CCCC4)cc3)nc2)c1)c1cccc(C(F)(F)F)c1 [drawing 161] |  | 2.9 nM
O=C(Nc1ccc(Cl)c(C(=O)Nc2cnc(Nc3cccc(OCCN4CCCC4)c3)nc2)c1)c1cccc(C(F)(F)F)c1 [drawing 162] | 2.1 nM | 2.7 nM
Cc1ccc(NC(=O)c2cccc(C(F)(F)F)c2)cc1C(=O)Nc1cnc(Nc2cccc(OCCN3CCCC3)c2)nc1 [drawing 163] | 3.9 nM | 13.8 nM
O=C(Nc1cnc(Nc2cccc(OCCN3CCCC3)c2)nc1)c1cc(NC(=O)C(F)(F)F)ccc1Cl [drawing 168] | 63.4 nM | 
O=C(Nc1ccc(Cl)c(C(=O)Nc2cnc(Nc3ccc(S(=O)(=O)C4CCNCC4)cc3)nc2)c1)c1cccc(C(F)(F)F)c1 [drawing 169] | 1.8 nM | 4.5 nM
Cc1ccc(NC(=O)c2cccc(C(F)(F)F)c2)cc1C(=O)Nc1cnc(Nc2ccc(OCCN3CCCC3)cc2)nc1 [drawing 170] | 3.3 nM | 3.2 nM
O=C(Nc1ccc(Cl)c(C(=O)Nc2cnc(Nc3ccc(OCCN4CCCC4)cc3)nc2)c1)c1cccc(C(F)(F)F)c1 [drawing 171] | 1.2 nM | 0.8 nM
O=C(Nc1ccc(Cl)c(C(=O)Nc2cnc(Nc3ccc(CCCN4CCCC4)cc3)nc2)c1)c1cccc(C(F)(F)F)c1 [drawing 172] | 2.8 nM | 
Cc1ccc(NC(=O)C(F)(F)F)cc1C(=O)Nc1cnc(Nc2cccc(OCCN3CCCC3)c2)nc1 [drawing 173] | 50.6 nM | 
O=C(Nc1ccc(Cl)c(C(=O)Nc2cnc(Nc3ccc(CCCN4CCCC4)cc3)nc2)c1)c1cccc(C(F)(F)F)c1 [drawing 180] | 2.6 nM | 
O=C(Nc1ccc(Cl)c(C(=O)Nc2cnc(Nc3ccccc3)nc2)c1)c1cccc(C(F)(F)F)c1 [drawing 181] | 4.5 nM | 9.6 nM
Cc1ccc(Nc2nccc3ccccc23)cc1C(=O)Nc1cnc(Nc2cccc(OCCN3CCCC3)c2)nc1 [drawing 186] | 23.3 nM | 3350 nM
O=C(Nc1cccc(C(F)(F)F)c1)Nc1ccc(Cl)c(C(=O)Nc2cnc(Nc3ccc(OCCN4CCCC4)cc3)nc2)c1 [drawing 202] | 2.2 nM | 7.1 nM
O=C(Nc1ccc(Cl)c(C(=O)Nc2cnc(Nc3cccnc3)nc2)c1)c1cccc(C(F)(F)F)c1 [drawing 211] | 4.7 nM | 5.4 nM
